The results in this text go back to patent US11000033B2, “Ketone or oxime compound, and herbicide” (NISSAN CHEMICAL CORPORATION, priority 2014, dated 2021).

Data set [1] deals with Abutilon theophrasti. As to the kind of experiment: Test Example 5: herbicidal effect by foliage application, plastic box (symbol M). Type of data set: in vivo. As to conditions: 320 g/ha, 3 weeks after application. Summed up:
(§1)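 Herbicide, formulated as an emulsion and diluted in water, is sprayed onto the aerial parts of 14-day seedlings. These were grown at 25° C. to 30° C. in sterilized diluvial soil; effects are graded after 3 weeks.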

In a further data set the test system is Galium spurium. As to the kind of experiment: Test Example 5: herbicidal effect by foliage application, plastic box (symbol Q). The format is in vivo. As to conditions: 320 g/ha, 3 weeks after application. The essentials:
as §1

The next data set relates to Digitaria ciliaris. As to the kind of experiment: Test Example 5: herbicidal effect by foliage application, plastic box (symbol F). As to conditions: 320 g/ha, 3 weeks after application. Type of data set: in vivo. The essentials: as §1
The subject of another data set is Alopecurus myosuroides. As to the kind of experiment: Test Example 4: herbicidal effect by soil treatment (symbol J). The format is in vivo. As to conditions: application herbicide amount 320 g/ha. The essentials:
(§2)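 Seeds were sown in sterilized diluvial soil, covered with about 1.5 cm of soil, and the soil surface was sprayed with a water-diluted emulsion of the compound at a predetermined rate. Plants grew in a greenhouse at 25° C. to 30° C.; effects were scored visually 3 weeks after application.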

In another data set the test system is Cyperus difformis. As to the kind of experiment: Test Example 3: herbicidal effect by foliage application, Wagner pot (symbol E). The format is in vivo. The settings on record: application herbicide amount 320 g/ha. The essentials: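 Plants sown in submerged alluvial soil (water depth 0.1–0.5 cm) in a 25–30 °C greenhouse and grown 14 days. An emulsion of the compound diluted in water to a set herbicide amount was sprayed uniformly on foliage. Effect on each plant scored 3 weeks after application.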

Data set [2] deals with Abutilon theophrasti. As to the kind of experiment: Test Example 4: herbicidal effect by soil treatment (symbol M). As to conditions: application herbicide amount 320 g/ha. The format is in vivo. The essentials:
as §2

The test system of a further data set is Amaranthus retroflexus. As to the kind of experiment: Test Example 5: herbicidal effect by foliage application, plastic box (symbol N). The format is in vivo. As to conditions: 320 g/ha, 3 weeks after application. The essentials:
as §1

The subject of the next data set is corn. As to the kind of experiment: Test Example 4: effect on crop by soil treatment (symbol c). The format is in vivo. As to conditions: application herbicide amount 320 g/ha. The essentials:
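Plants are raised in a greenhouse (25° C. to 30° C.) from spot-sown seed, which sits under about 1.5 cm of sterilized diluvial soil in a box shared with weed species.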

A further data set concerns Scirpus juncoides. As to the kind of experiment: Test Example 1: herbicidal activity, application before weed generation in submerged conditions (symbol B). Type of data set: in vivo. The settings on record: application herbicide amount 320 g/ha. The essentials:
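Weed control was rated three weeks after treatment on a 0–5 scale, from 5% or lower up to 90% or more. Pre-emergence water-surface application of diluted emulsion at a predetermined rate was made on the day of sowing, in flooded (4 cm water) pots containing rice seedlings, kept at 25–30 °C under glass.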

For the compound `CON=C(C)CC1CC(O)=C(c2c(C)cc(OCC(F)(F)F)cc2C)C1=O` (stereo not shown) [6-049], the melting point (usually the temperature, or range, at which the solid turns liquid) was 165 to 172 °C. Also, in the data set on Abutilon theophrasti [1], the “M: Abutilon theophrasti, herbicidal effect grade” value (“M: Abutilon theophrasti” for short) was 3 (Herbicidal ratio of 40% or higher and lower than 70%). Further, the “Q: Galium spurium, herbicidal effect grade” value (“Q: Galium spurium” below) in the data set on Galium spurium is 5 (Herbicidal ratio of 90% or more (almost completely withered)). Further, the “F: Digitaria ciliaris, herbicidal effect grade” value (“F: Digitaria ciliaris” for short) in the data set with Digitaria ciliaris is given as 5 (Herbicidal ratio of 90% or more (almost completely withered)). In addition, the “J: Alopecurus myosuroides, herbicidal effect grade” value (from here on “J: Alopecurus myosuroides”) with Alopecurus myosuroides is given as 5 (Herbicidal ratio of 90% or more (almost completely withered)). For the same compound, the “herbicidal effect on E, grade 0-5” value in the data set with Cyperus difformis is on record as 5 (Herbicidal ratio of 90% or more (almost completely withered)). In addition, the “M: Abutilon theophrasti” value with Abutilon theophrasti [2] was 4 (Herbicidal ratio of 70% or higher and lower than 90%). In addition, the “N: Amaranthus retroflexus, herbicidal effect grade” value (from here on “N: Amaranthus retroflexus”) with Amaranthus retroflexus was 4 (Herbicidal ratio of 70% or higher and lower than 90%). Also, the “c: corn, effect on crop grade” value in the data set on corn is on record as 5 (Herbicidal ratio of 90% or more (almost completely withered)). Also, the “Herbicidal effect grade, B: Scirpus juncoides” value (from here on “Herbicidal effect grade, B”) in the data set with Scirpus juncoides is on record as 5 (Herbicidal ratio of 90% or more (almost completely withered)).

Compound `CON=C(C)CC1CC(O)=C(c2c(C)cc(-c3ccccc3)cc2C)C1=O` (stereo not shown) [6-015] had a melting point of 167 to 169 °C. For the same compound, the “M: Abutilon theophrasti” value in the data set on Abutilon theophrasti [1] is 2 (Herbicidal ratio of 20% or higher and lower than 40%). For the same compound, in the data set on Galium spurium, the “Q: Galium spurium” value is 2 (Herbicidal ratio of 20% or higher and lower than 40%). In addition, the “F: Digitaria ciliaris” value with Digitaria ciliaris is 5 (Herbicidal ratio of 90% or more (almost completely withered)). Besides, the “J: Alopecurus myosuroides” value in the data set on Alopecurus myosuroides is 5 (Herbicidal ratio of 90% or more (almost completely withered)). In addition, the “herbicidal effect on E, grade 0-5” value in the data set on Cyperus difformis is given as 5 (Herbicidal ratio of 90% or more (almost completely withered)). Besides, in the data set on Abutilon theophrasti [2], the “M: Abutilon theophrasti” value is 3 (Herbicidal ratio of 40% or higher and lower than 70%). In addition, the “N: Amaranthus retroflexus” value with Amaranthus retroflexus is 2 (Herbicidal ratio of 20% or higher and lower than 40%). Besides, the “c: corn, effect on crop grade” value in the data set with corn is 5 (Herbicidal ratio of 90% or more (almost completely withered)). In addition, the “Herbicidal effect grade, B” value in the data set with Scirpus juncoides is listed as 5 (Herbicidal ratio of 90% or more (almost completely withered)).

The compound `CON=C(C)CC1CC(O)=C(c2c(C)cc(Br)cc2C)C1=O` (stereo not shown) [6-003] yielded a melting point of 164 to 166 °C. Besides, the “M: Abutilon theophrasti” value in the data set with Abutilon theophrasti [1] is 3 (Herbicidal ratio of 40% or higher and lower than 70%). The “Q: Galium spurium” value in the data set on Galium spurium is 3 (Herbicidal ratio of 40% or higher and lower than 70%). Also, in the data set with Digitaria ciliaris, the “F: Digitaria ciliaris” value is listed as 5 (Herbicidal ratio of 90% or more (almost completely withered)). In the data set on Alopecurus myosuroides, the “J: Alopecurus myosuroides” value was 5 (Herbicidal ratio of 90% or more (almost completely withered)). The “herbicidal effect on E, grade 0-5” value in the data set on Cyperus difformis is 5 (Herbicidal ratio of 90% or more (almost completely withered)). The “M: Abutilon theophrasti” value in the data set on Abutilon theophrasti [2] is 5 (Herbicidal ratio of 90% or more (almost completely withered)). The “N: Amaranthus retroflexus” value in the data set with Amaranthus retroflexus is recorded as 0 (Herbicidal ratio of 5% or lower (almost no effect)). Besides, the “c: corn, effect on crop grade” value in the data set with corn was 4 (Herbicidal ratio of 70% or higher and lower than 90%). The “Herbicidal effect grade, B” value with Scirpus juncoides is 4 (Herbicidal ratio of 70% or higher and lower than 90%).

The compound `CCc1cc(C)cc(C)c1C1=C(O)CC(CC(C)=NOC)C1=O` (stereo not shown) [6-007] registered a melting point of 122 to 125 °C. Moreover, the “M: Abutilon theophrasti” value with Abutilon theophrasti [1] was 1 (Herbicidal ratio of 5% or higher and lower than 20%). Further, the “Q: Galium spurium” value in the data set with Galium spurium is listed as 0 (Herbicidal ratio of 5% or lower (almost no effect)). Moreover, the “F: Digitaria ciliaris” value in the data set with Digitaria ciliaris is given as 5 (Herbicidal ratio of 90% or more (almost completely withered)). Moreover, the “J: Alopecurus myosuroides” value with Alopecurus myosuroides is recorded as 5 (Herbicidal ratio of 90% or more (almost completely withered)). For the same compound, the “herbicidal effect on E, grade 0-5” value in the data set with Cyperus difformis is 5 (Herbicidal ratio of 90% or more (almost completely withered)). The “M: Abutilon theophrasti” value with Abutilon theophrasti [2] was 4 (Herbicidal ratio of 70% or higher and lower than 90%). In the data set on Amaranthus retroflexus, the “N: Amaranthus retroflexus” value is on record as 0 (Herbicidal ratio of 5% or lower (almost no effect)). In addition, the “c: corn, effect on crop grade” value in the data set on corn is reported as 5 (Herbicidal ratio of 90% or more (almost completely withered)). Besides, in the data set on Scirpus juncoides, the “Herbicidal effect grade, B” value was 5 (Herbicidal ratio of 90% or more (almost completely withered)).

Regarding `CON=C(C)CC1CC(O)=C(c2c(C)cc(C(=O)OC)cc2C)C1=O` (stereo not shown) [6-023], the “M: Abutilon theophrasti” value in the data set on Abutilon theophrasti [1] and with Abutilon theophrasti [2] was 0 (Herbicidal ratio of 5% or lower (almost no effect)) each time. The “Q: Galium spurium” value with Galium spurium is 0 (Herbicidal ratio of 5% or lower (almost no effect)). Further, in the data set on Digitaria ciliaris, the “F: Digitaria ciliaris” value is given as 5 (Herbicidal ratio of 90% or more (almost completely withered)). Besides, the “J: Alopecurus myosuroides” value in the data set with Alopecurus myosuroides is 4 (Herbicidal ratio of 70% or higher and lower than 90%). Besides, in the data set with Cyperus difformis, the “herbicidal effect on E, grade 0-5” value was 4 (Herbicidal ratio of 70% or higher and lower than 90%). Also, the “N: Amaranthus retroflexus” value in the data set with Amaranthus retroflexus is 0 (Herbicidal ratio of 5% or lower (almost no effect)). Also, the “c: corn, effect on crop grade” value in the data set with corn was 1 (Herbicidal ratio of 5% or higher and lower than 20%). In addition, the “Herbicidal effect grade, B” value with Scirpus juncoides is listed as 0 (Herbicidal ratio of 5% or lower (almost no effect)).

For the compound `CC#Cc1cc(C)c(C2=C(O)CC(CC(C)=NOC)C2=O)c(CC)c1` (mixture of isomers) [6-006], the “M: Abutilon theophrasti” value was 0 (Herbicidal ratio of 5% or lower (almost no effect)) with Abutilon theophrasti [1]; 4 (Herbicidal ratio of 70% or higher and lower than 90%) in the data set with Abutilon theophrasti [2]. The “Q: Galium spurium” value in the data set on Galium spurium was 0 (Herbicidal ratio of 5% or lower (almost no effect)). The “F: Digitaria ciliaris” value in the data set on Digitaria ciliaris was 3 (Herbicidal ratio of 40% or higher and lower than 70%). The “J: Alopecurus myosuroides” value in the data set on Alopecurus myosuroides is listed as 5 (Herbicidal ratio of 90% or more (almost completely withered)). Besides, the “herbicidal effect on E, grade 0-5” value with Cyperus difformis was 5 (Herbicidal ratio of 90% or more (almost completely withered)). Further, the “N: Amaranthus retroflexus” value in the data set with Amaranthus retroflexus is given as 0 (Herbicidal ratio of 5% or lower (almost no effect)). For the same compound, the “c: corn, effect on crop grade” value with corn is given as 5 (Herbicidal ratio of 90% or more (almost completely withered)). In the data set on Scirpus juncoides, the “Herbicidal effect grade, B” value is recorded as 5 (Herbicidal ratio of 90% or more (almost completely withered)).

For the compound `CCOC(=O)C(C(=O)C(F)(F)F)C1CC(O)=C(c2c(C)cc(C)cc2C)C1=O` (stereo not shown) [2-010], the “M: Abutilon theophrasti” value with Abutilon theophrasti [1] and with Abutilon theophrasti [2] was 0 (Herbicidal ratio of 5% or lower (almost no effect)) each time. In addition, in the data set on Galium spurium, the “Q: Galium spurium” value is 0 (Herbicidal ratio of 5% or lower (almost no effect)). The “F: Digitaria ciliaris” value in the data set with Digitaria ciliaris is reported as 0 (Herbicidal ratio of 5% or lower (almost no effect)). Besides, the “J: Alopecurus myosuroides” value in the data set on Alopecurus myosuroides is 0 (Herbicidal ratio of 5% or lower (almost no effect)). Besides, the “herbicidal effect on E, grade 0-5” value in the data set on Cyperus difformis was 0 (Herbicidal ratio of 5% or lower (almost no effect)). Further, the “N: Amaranthus retroflexus” value in the data set on Amaranthus retroflexus was 0 (Herbicidal ratio of 5% or lower (almost no effect)). In addition, in the data set on corn, the “c: corn, effect on crop grade” value is 0 (Herbicidal ratio of 5% or lower (almost no effect)). The “Herbicidal effect grade, B” value in the data set on Scirpus juncoides is 0 (Herbicidal ratio of 5% or lower (almost no effect)).

For `CC(=O)CC1CC(OC(=O)C(C)(C)C)=C(c2c(C)cc(C)cc2C)C1=O` (stereo not shown) [2-018], the “M: Abutilon theophrasti” value is 0 (Herbicidal ratio of 5% or lower (almost no effect)) with Abutilon theophrasti [1]; 4 (Herbicidal ratio of 70% or higher and lower than 90%) with Abutilon theophrasti [2]. Further, the “Q: Galium spurium” value in the data set with Galium spurium is listed as 0 (Herbicidal ratio of 5% or lower (almost no effect)). Besides, the “F: Digitaria ciliaris” value in the data set on Digitaria ciliaris was 1 (Herbicidal ratio of 5% or higher and lower than 20%). In addition, the “J: Alopecurus myosuroides” value with Alopecurus myosuroides is 3 (Herbicidal ratio of 40% or higher and lower than 70%). Moreover, the “herbicidal effect on E, grade 0-5” value in the data set with Cyperus difformis is given as 5 (Herbicidal ratio of 90% or more (almost completely withered)). Besides, in the data set with Amaranthus retroflexus, the “N: Amaranthus retroflexus” value was 0 (Herbicidal ratio of 5% or lower (almost no effect)). In addition, in the data set on corn, the “c: corn, effect on crop grade” value was 2 (Herbicidal ratio of 20% or higher and lower than 40%). Moreover, in the data set on Scirpus juncoides, the “Herbicidal effect grade, B” value is 2 (Herbicidal ratio of 20% or higher and lower than 40%).
